Assay results taken from patent publication US20080069896A1, “Antitumor Composition” (Kabushiki Kaisha Sangi, priority 2004, published 2008).

Experiments:
Assay type in all cases: cell-based
YES1 = experiment: MTT assay, human cancer cells YES1; details: for IC50 of human cancer cells by MTT assay: YES1, esophageal cancer, HAP agents particle diameter 0.1 μm or less; for Platinum content calculated from IC50 of human cancer cells by MTT assay: YES1, IC50 converted to platinum concentration
Procedure: (§1) Effect of platinum tetrachloride/hydroxyapatite (PtCl4/HAP) and hexachloroplatinate/hydroxyapatite (H2PtCl6/HAP) against human cancer cells (MTT assay)
(§2) According to “in vitro toxicity test using MTT”, which is an ordinary test method, MTT assay was performed for PtCl4/HAP (particle diameter 0.1 μm or less), and H2PtCl6/HAP (particle diameter 0.1 μm or less) by using 19 types of human cancer cells. PtCl4/HAP and H2PtCl6/HAP were used by adjusting the final dispersion concentration to 1.0% in a dispersion liquid each containing 10% platinum as a theoretical value. For comparison, MTT assay was performed for PtCl4 and CDDP. PtCl4 was dissolved at an adequate dose, and then used after serial dilution with PBS (−). For CDDP, injection liquid from Malco was used.

SiHa = experiment: MTT assay, human cancer cells SiHa; details: for Platinum content calculated from IC50 of human cancer cells by MTT assay: IC50 converted to platinum concentration; for IC50 of human cancer cells by MTT assay: cervical cancer, HAP agents particle diameter 0.1 μm or less
Procedure: as §1, §2

SW837 = experiment: MTT assay, human cancer cells SW837; details: for IC50 of human cancer cells by MTT assay: SW837, colon cancer, HAP agents particle diameter 0.1 μm or less; for Platinum content calculated from IC50 of human cancer cells by MTT assay: SW837, IC50 converted to platinum concentration
Procedure: as §1, §2

HepG2 = experiment: MTT assay, human cancer cells HepG2; details: for IC50 of human cancer cells by MTT assay: HepG2, liver cancer, HAP agents particle diameter 0.1 μm or less; for Platinum content calculated from IC50 of human cancer cells by MTT assay: HepG2, IC50 converted to platinum concentration
Procedure: as §1, §2

YES6 = experiment: MTT assay, human cancer cells YES6; details: for IC50 of human cancer cells by MTT assay: YES6, esophageal cancer, HAP agents particle diameter 0.1 μm or less; for Platinum content calculated from IC50 of human cancer cells by MTT assay: YES6, IC50 converted to platinum concentration
Procedure: as §1, §2

YES4 = experiment: MTT assay, human cancer cells YES4; details: for IC50 of human cancer cells by MTT assay: YES4, esophageal cancer, HAP agents particle diameter 0.1 μm or less; for Platinum content calculated from IC50 of human cancer cells by MTT assay: YES4, IC50 converted to platinum concentration
Procedure: as §1, §2

HeLa = experiment: MTT assay, human cancer cells HeLa; details: for Platinum content calculated from IC50 of human cancer cells by MTT assay: IC50 converted to platinum concentration; for IC50 of human cancer cells by MTT assay: cervical cancer, HAP agents particle diameter 0.1 μm or less
Procedure: as §1, §2

AZ521 = experiment: MTT assay, human cancer cells AZ521; details: for IC50 of human cancer cells by MTT assay: AZ521, gastric cancer, HAP agents particle diameter 0.1 μm or less; for Platinum content calculated from IC50 of human cancer cells by MTT assay: AZ521, IC50 converted to platinum concentration
Procedure: as §1, §2

[1] = tested on: human lung cancer cell Lu65; experiment: MTT assay, human lung cancer cell Lu65; details: for IC50 of human cancer cells by MTT assay: Lu65, lung cancer, HAP agents particle diameter 0.1 μm or less (Table 1); for Platinum content calculated from IC50 of human cancer cells by MTT assay: Lu65, IC50 converted to platinum concentration (Table 2)
Procedure: as §1, §2

HSC3 = experiment: MTT assay, human cancer cells HSC3; details: for IC50 of human cancer cells by MTT assay: HSC3, oral cancer, HAP agents particle diameter 0.1 μm or less; for Platinum content calculated from IC50 of human cancer cells by MTT assay: HSC3, IC50 converted to platinum concentration
Procedure: as §1, §2

[2] = tested on: fibroblasts during proliferation stage; experiment: Toxicity test during proliferation stage (MTT assay); details: rat fibroblasts, 48 hours; for IC50 in the toxicity test during proliferation stage: HAP agents particle diameter 0.1 μm or less
From the text: A male mature rat was deeply anesthetized with ether, and disinfected by wiping carefully its tail with alcohol. The tail end part was cut by several centimeters, and the skin was removed from coccyx. Tendon was attached to the coccyx, and by culturing the same, fibroblasts can be recovered. Coccyx part was further cut finely with a sterilized pair of scissors, and adhered on a sterilized plastic plate with the cut surface down. After resting the plate for a while, DMEM supplemented with 10% FBS was added thereto. In approximately one week, fibroblasts germinated from the coccyx part, and proliferated in the plate. The fibroblasts collected from rat tail end were used for the following experiment.
According to “in vitro toxicity test method using MTT” which is an ordinary test method, MTT assay was performed for PtCl4/HAP (particle diameter 0.1 μm or less) and H2PtCl6/HAP (particle diameter 0.1 μm or less). PtCl4/HAP and H2PtCl6/HAP were used by adjusting the final dispersion concentration to 1.0%, with a dispersion liquid each containing 10% platinum as a theoretical value. For comparison, MTT assay was performed for PtCl4 and CDDP. PtCl4 was dissolved at an adequate dose, and then used after serial dilution with PBS (−) For CDDP, injection liquid from Malco was used.
Fibroblasts during proliferation stage on the plate were peeled off with trypsin-EDTA, adjusted to 1×10^4/ml, and poured by aliquot of […] in a 96-well plate.
The 96-well plate added with fibroblasts was cultured for 24 hours, and samples serially diluted with PBS (−) were added by an amount of 10 μl. 48 hours after adding a test sample, 200 μl of PBS (−) was added to the 96-well plate, and approximately 1 min after, all the solution was removed. Immediately, 160 μl of DMSO was added to the plate. However, to the plates in which PtCl4/HAP and H2PtCl6/HAP were added, DMSO was added in an amount of 200 μl, respectively. Each plate was shaken for 5 min in a shaker, to dissolve completely the formed formazan. As it was believed that precipitation of PtCl4/HAP and H2PtCl6/HAP would suppress the colorization, the plates of PtCl4/HAP and H2PtCl6/HAP were rested for 5 min, and 160 μl of the supernatant was moved to another 96-well plate. Test samples for each cell and each concentration, the test was performed for 4 wells or more, and the optical density was measured by using a microplate at 550 nm.

YES3 = experiment: MTT assay, human cancer cells YES3; details: for IC50 of human cancer cells by MTT assay: YES3, esophageal cancer, HAP agents particle diameter 0.1 μm or less; for Platinum content calculated from IC50 of human cancer cells by MTT assay: YES3, IC50 converted to platinum concentration
Procedure: as §1, §2

[3] = tested on: human lung cancer cell Lu99; experiment: MTT assay, human lung cancer cell Lu99; details: for IC50 of human cancer cells by MTT assay: Lu99, lung cancer, HAP agents particle diameter 0.1 μm or less (Table 1); for Platinum content calculated from IC50 of human cancer cells by MTT assay: Lu99, IC50 converted to platinum concentration (Table 2)
Procedure: as §1, §2

LoVo = experiment: MTT assay, human cancer cells LoVo; details: for Platinum content calculated from IC50 of human cancer cells by MTT assay: IC50 converted to platinum concentration; for IC50 of human cancer cells by MTT assay: colon cancer, HAP agents particle diameter 0.1 μm or less
Procedure: as §1, §2

YES2 = experiment: MTT assay, human cancer cells YES2; details: for IC50 of human cancer cells by MTT assay: YES2, esophageal cancer, HAP agents particle diameter 0.1 μm or less; for Platinum content calculated from IC50 of human cancer cells by MTT assay: YES2, IC50 converted to platinum concentration
Procedure: as §1, §2

HT1080 = experiment: MTT assay, human cancer cells HT1080; details: for IC50 of human cancer cells by MTT assay: HT1080, fibrosarcoma, HAP agents particle diameter 0.1 μm or less; for Platinum content calculated from IC50 of human cancer cells by MTT assay: HT1080, IC50 converted to platinum concentration
Procedure: as §1, §2

SMILES | IC50 of human cancer cells by MTT assay (YES1) | Platinum content calculated from IC50 of human cancer cells by MTT assay (YES1) | Platinum content calculated from IC50 of human cancer cells by MTT assay (SiHa) | IC50 of human cancer cells by MTT assay (SiHa) | IC50 of human cancer cells by MTT assay (SW837) | Platinum content calculated from IC50 of human cancer cells by MTT assay (SW837) | IC50 of human cancer cells by MTT assay (HepG2) | Platinum content calculated from IC50 of human cancer cells by MTT assay (HepG2) | IC50 of human cancer cells by MTT assay (YES6) | Platinum content calculated from IC50 of human cancer cells by MTT assay (YES6) | IC50 of human cancer cells by MTT assay (YES4) | Platinum content calculated from IC50 of human cancer cells by MTT assay (YES4) | Platinum content calculated from IC50 of human cancer cells by MTT assay (HeLa) | IC50 of human cancer cells by MTT assay (HeLa) | IC50 of human cancer cells by MTT assay (AZ521) | Platinum content calculated from IC50 of human cancer cells by MTT assay (AZ521) | IC50 of human cancer cells by MTT assay [1] | Platinum content calculated from IC50 of human cancer cells by MTT assay [1] | IC50 of human cancer cells by MTT assay (HSC3) | Platinum content calculated from IC50 of human cancer cells by MTT assay (HSC3) | further results
[NH2][Pt]([NH2])([Cl])[Cl] [CDDP, cisplatin] | 8.2 ppm | 5.4 ppm | 9.8 ppm | 15.1 ppm | 40.2 ppm | 26.1 ppm | 5.0 ppm | 5.0 ppm | 0.8 ppm | 0.5 ppm | 1.3 ppm | 0.8 ppm | 1.4 ppm | 2.1 ppm | 1.0 ppm | 0.7 ppm | 2.7 ppm | 2.7 ppm | 2.9 ppm | 1.9 ppm | Net Pt: platinum content wherein IC50 is converted to platinum concentration, proliferation stage [2]: 0.3 ppm; IC50 in the toxicity test during proliferation stage [2]: 0.5 ppm; IC50 of human cancer cells by MTT assay (YES3): 1.2 ppm; Platinum content calculated from IC50 of human cancer cells by MTT assay (YES3): 0.8 ppm; IC50 of human cancer cells by MTT assay [3]: 0.8 ppm; Platinum content calculated from IC50 of human cancer cells by MTT assay [3]: 0.8 ppm; Platinum content calculated from IC50 of human cancer cells by MTT assay (LoVo): 10.3 ppm; IC50 of human cancer cells by MTT assay (LoVo): 15.8 ppm; IC50 of human cancer cells by MTT assay (YES2): 1.7 ppm; Platinum content calculated from IC50 of human cancer cells by MTT assay (YES2): 1.1 ppm; IC50 of human cancer cells by MTT assay (HT1080): 25.5 ppm; Platinum content calculated from IC50 of human cancer cells by MTT assay (HT1080): 16.6 ppm
[Cl][Pt]([Cl])([Cl])[Cl] [PtCl4, platinum tetrachloride] | 19.2 ppm | 11.1 ppm | 5.0 ppm | 8.7 ppm | 32.9 ppm | 19.1 ppm | 6.2 ppm | 6.2 ppm | 11.9 ppm | 6.9 ppm | 14.6 ppm | 8.5 ppm | 4.0 ppm | 7.0 ppm | 14.6 ppm | 8.4 ppm | 0.9 ppm | 0.9 ppm | 9.6 ppm | 5.5 ppm | Net Pt: platinum content wherein IC50 is converted to platinum concentration, proliferation stage [2]: 2.3 ppm; IC50 in the toxicity test during proliferation stage [2]: 4.0 ppm; IC50 of human cancer cells by MTT assay (YES3): 19.2 ppm; Platinum content calculated from IC50 of human cancer cells by MTT assay (YES3): 11.1 ppm; IC50 of human cancer cells by MTT assay [3]: 1.1 ppm; Platinum content calculated from IC50 of human cancer cells by MTT assay [3]: 1.1 ppm; Platinum content calculated from IC50 of human cancer cells by MTT assay (LoVo): 3.8 ppm; IC50 of human cancer cells by MTT assay (LoVo): 6.6 ppm; IC50 of human cancer cells by MTT assay (YES2): 35.8 ppm; Platinum content calculated from IC50 of human cancer cells by MTT assay (YES2): 20.7 ppm; IC50 of human cancer cells by MTT assay (HT1080): 9.6 ppm; Platinum content calculated from IC50 of human cancer cells by MTT assay (HT1080): 5.6 ppm
